Patent publication US20100298141A1, “SUBSTITUTED PYRIDINE N-OXIDE HERBICIDES” (E. I. DU PONT DE NEMOURS AND COMPANY, priority 2007, published 2010)

Assays:
winter barley = assay: Test C postemergence test; assay type: in vivo, Hordeum vulgare; conditions: for Plant response rating, Barley: scale 0 to 100, 0 no effect, 100 complete control
Procedure, shortened: (§1)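 Postemergence sprays of formulated test chemicals on plants 2 to 18 cm tall (1- to 4-leaf stage). Greenhouse hold for 13 to 15 days, then visual rating of each species against untreated controls; dash means no test result.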

chickweed = assay: Test C postemergence test; assay type: in vivo, Stellaria media; conditions: for Plant response rating, Chickweed: scale 0 to 100, 0 no effect, 100 complete control
Procedure, shortened: as §1

green foxtail = assay: Test F preemergence test; assay type: in vivo, Setaria viridis; conditions: scale 0 to 100
Procedure, shortened: (§2)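 Visual ratings relative to controls, taken after 14 to 21 days in a greenhouse. Test chemicals, formulated in a surfactant-containing non-phytotoxic solvent mixture, were applied preemergence to sown seeds or postemergence to sugarcane plants.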

johnsongrass = assay: Test F preemergence test; assay type: in vivo, Sorghum halepense; conditions: Preemergence, scale 0 to 100
Procedure, shortened: as §2

pitted morningglory = assay: Test F preemergence test; assay type: in vivo, Ipomoea lacunosa; conditions: scale 0 to 100
Procedure, shortened: as §2

guineagrass = assay: Test F preemergence test; assay type: in vivo, Panicum maximum; conditions: scale 0 to 100
Procedure, shortened: as §2

dallisgrass = assay: Test F preemergence test; assay type: in vivo, Paspalum dilatatum; conditions: scale 0 to 100
Procedure, shortened: as §2

common sowthistle = assay: Test F preemergence test; assay type: in vivo, Sonchus oleraceous; conditions: scale 0 to 100
Procedure, shortened: as §2

prickly sida = assay: Test F preemergence test; assay type: in vivo, Sida spinosa; conditions: scale 0 to 100
Procedure, shortened: as §2

common purslane = assay: Test F preemergence test; assay type: in vivo, Portulaca oleracea; conditions: scale 0 to 100
Procedure, shortened: as §2

common groundsel = assay: Test F preemergence test; assay type: in vivo, Senecio vulgaris; conditions: scale 0 to 100
Procedure, shortened: as §2

Virginia dayflower = assay: Test F preemergence test; assay type: in vivo, Commelina virginica; conditions: scale 0 to 100
Procedure, shortened: as §2

annual bluegrass = assay: Test F preemergence test; assay type: in vivo, Poa annua; conditions: scale 0 to 100
Procedure, shortened: as §2

naked crabgrass = assay: Test F preemergence test; assay type: in vivo, Digitaria nuda; conditions: scale 0 to 100
Procedure, shortened: as §2

itchgrass = assay: Test F preemergence test; assay type: in vivo, Rottboellia cochinchinensis; conditions: scale 0 to 100
Procedure, shortened: as §2

field bindweed = assay: Test F preemergence test; assay type: in vivo, Convolvulus arvensis; conditions: scale 0 to 100
Procedure, shortened: as §2

common mallow = assay: Test F preemergence test; assay type: in vivo, Malva sylvestris; conditions: scale 0 to 100
Procedure, shortened: as §2

Russian thistle = assay: Test F preemergence test; assay type: in vivo, Salsola kali; conditions: scale 0 to 100
Description: Seeds of plant species selected from bermudagrass (Cynodon dactylon), Surinam grass (Brachiaria decumbens), large crabgrass (Digitaria sanguinalis), green foxtail (Setaria viridis), goosegrass (Eleusine indica), johnsongrass (Sorghum halepense), kochia (Kochia scoparia), pitted morningglory (Ipomoea lacunosa), purple nutsedge (Cyperus rotundus), common ragweed (Ambrosia elation), mustard (Brassica nigra), guineagrass (Panicum maximum), […] (Paspalum dilatatum), barnyardgrass (Echinochloa crus-galli), southern sandbur (Cenchrus echinatus), common sowthistle (Sonchus oleraceous), prickly […] spinosa), Italian ryegrass (Lolium multiflorum), common purslane (Portulaca oleracea), broadleaf signalgrass (Brachiaria platyphylla), common groundsel (Senecio vulgaris), common chickweed (Stellaria media), Virginia dayflower (Commelina virginica), annual bluegrass (Poa annua), naked crabgrass (Digitaria nuda), […] cochinchinensis), quackgrass (Elytrigia repens), Canada horseweed (Conyza canadensis), field bindweed (Convolvulus arvensis), […] (Bidens bipinnata), common mallow (Malva sylvestris), Russian thistle (Salsola kali), and sugarcane (Saccharum officinarum) were planted and treated preemergence with test chemicals formulated in a non-phytotoxic solvent mixture which included a surfactant. At a different time, sugarcane was treated with postemergence applications of some of the test chemicals formulated in the same manner. Plants were approximately 3- to 4-leaf stage for the postemergence treatments. Treated plants and controls were maintained in a greenhouse for 14 to 21 days, after which time all species were compared to controls and visually evaluated. […] A dash (-) response means no test result.

## Cc1cc[n+]([O-])c(S(=O)(=O)Cc2c(C(F)(F)F)nn(C)c2OC(F)F)c1 [Compound 2]
Winter barley; 31 g ai/ha
  Plant response rating (0 to 100), Barley: 0
Winter barley; 62 g ai/ha
  Plant response rating, Barley: 0
Winter barley; 125 g ai/ha
  Plant response rating, Barley: 0
Winter barley; 250 g ai/ha
  Plant response rating, Barley: 0
chickweed; 31 g ai/ha
  Plant response rating (0 to 100), Chickweed: 0
chickweed; 62 g ai/ha
  Plant response rating, Chickweed: 0
chickweed; 125 g ai/ha
  Plant response rating, Chickweed: 5
chickweed; 250 g ai/ha
  Plant response rating, Chickweed: 80
Green foxtail; 8 g ai/ha, preemergence
  Plant response rating, Foxtail, Green: 0
Green foxtail; 62 g ai/ha, Preemergence
  Foxtail, Green plant response rating: 80
Green foxtail; Preemergence, 16 g ai/ha
  Plant response rating, Foxtail, Green: 20
Green foxtail; Preemergence, 31 g ai/ha
  Plant response rating, Foxtail, Green: 65
johnsongrass; 62 g ai/ha
  Johnsongrass plant response rating: 85
johnsongrass; 31 g ai/ha
  Plant response rating, Johnsongrass: 70
Pitted morningglory; 8 g ai/ha, preemergence
  Plant response rating, Morningglory: 0
Pitted morningglory; 62 g ai/ha, Preemergence
  Morningglory plant response rating: 60
Pitted morningglory; Preemergence, 16 g ai/ha
  Plant response rating, Morningglory: 0
Pitted morningglory; Preemergence, 31 g ai/ha
  Plant response rating, Morningglory: 15
guineagrass; 8 g ai/ha, preemergence
  Plant response rating, Guineagrass: 0
guineagrass; 62 g ai/ha, Preemergence
  Guineagrass plant response rating: 100
guineagrass; Preemergence, 16 g ai/ha
  Plant response rating, Guineagrass: 65
guineagrass; Preemergence, 31 g ai/ha
  Plant response rating, Guineagrass: 90
dallisgrass; 8 g ai/ha, preemergence
  Plant response rating, Dallisgrass: 0
dallisgrass; 62 g ai/ha, Preemergence
  Dallisgrass plant response rating: 65
dallisgrass; Preemergence, 16 g ai/ha
  Plant response rating, Dallisgrass: 0
dallisgrass; Preemergence, 31 g ai/ha
  Plant response rating, Dallisgrass: 10
Common sowthistle; 8 g ai/ha, preemergence
  Plant response rating, Sowthistle: 0
Common sowthistle; 16 g ai/ha, preemergence
  Plant response rating, Sowthistle: 0
Common sowthistle; 62 g ai/ha, Preemergence
  Sowthistle plant response rating: 100
Common sowthistle; Preemergence, 31 g ai/ha
  Plant response rating, Sowthistle: 60
Prickly sida; 8 g ai/ha, preemergence
  Plant response rating, Prickly Sida: 0
Prickly sida; 62 g ai/ha, Preemergence
  Prickly Sida plant response rating: 80
Prickly sida; Preemergence, 16 g ai/ha
  Plant response rating, Prickly Sida: 0
Prickly sida; Preemergence, 31 g ai/ha
  Plant response rating, Prickly Sida: 40
Common purslane; 8 g ai/ha, preemergence
  Plant response rating, Purslane: 0
Common purslane; 62 g ai/ha, Preemergence
  Purslane plant response rating: 50
Common purslane; Preemergence, 16 g ai/ha
  Plant response rating, Purslane: 0
Common purslane; Preemergence, 31 g ai/ha
  Plant response rating, Purslane: 40
Common groundsel; 8 g ai/ha, preemergence
  Plant response rating, Groundsel: 0
Common groundsel; 62 g ai/ha, Preemergence
  Groundsel plant response rating: 50
Common groundsel; Preemergence, 16 g ai/ha
  Plant response rating, Groundsel: 0
Common groundsel; Preemergence, 31 g ai/ha
  Plant response rating, Groundsel: 50
Virginia dayflower; 8 g ai/ha, preemergence
  Plant response rating, Dayflower: 0
Virginia dayflower; 62 g ai/ha, Preemergence
  Dayflower plant response rating: 100
Virginia dayflower; Preemergence, 16 g ai/ha
  Plant response rating, Dayflower: 0
Virginia dayflower; Preemergence, 31 g ai/ha
  Plant response rating, Dayflower: 100
Annual bluegrass; 8 g ai/ha, preemergence
  Plant response rating, Bluegrass: 0
Annual bluegrass; 62 g ai/ha, Preemergence
  Bluegrass plant response rating: 25
Annual bluegrass; Preemergence, 16 g ai/ha
  Plant response rating, Bluegrass: 0
Annual bluegrass; Preemergence, 31 g ai/ha
  Plant response rating, Bluegrass: 15
Naked crabgrass; 8 g ai/ha, preemergence
  Plant response rating, Crabgrass, Naked: 0
Naked crabgrass; 62 g ai/ha, Preemergence
  Crabgrass, Naked plant response rating: 80
Naked crabgrass; Preemergence, 16 g ai/ha
  Plant response rating, Crabgrass, Naked: 35
Naked crabgrass; Preemergence, 31 g ai/ha
  Plant response rating, Crabgrass, Naked: 65
itchgrass; 8 g ai/ha, preemergence
  Plant response rating, Itchgrass: 0
itchgrass; 62 g ai/ha, Preemergence
  Itchgrass plant response rating: 70
itchgrass; Preemergence, 16 g ai/ha
  Plant response rating, Itchgrass: 20
itchgrass; Preemergence, 31 g ai/ha
  Plant response rating, Itchgrass: 60
Field bindweed; 8 g ai/ha, preemergence
  Plant response rating, Field Bindweed: 0
Field bindweed; 62 g ai/ha, Preemergence
  Field Bindweed plant response rating: 0
Field bindweed; Preemergence, 16 g ai/ha
  Plant response rating, Field Bindweed: 0
Field bindweed; Preemergence, 31 g ai/ha
  Plant response rating, Field Bindweed: 0
Common mallow; 8 g ai/ha, preemergence
  Plant response rating, Mallow: 0
Common mallow; 62 g ai/ha, Preemergence
  Mallow plant response rating: 35
Common mallow; Preemergence, 16 g ai/ha
  Plant response rating, Mallow: 0
Common mallow; Preemergence, 31 g ai/ha
  Plant response rating, Mallow: 0
Russian thistle; 8 g ai/ha, preemergence
  Plant response rating, Russian Thistle: 0
Russian thistle; Preemergence, 16 g ai/ha
  Plant response rating, Russian Thistle: 0
Russian thistle; Preemergence, 31 g ai/ha
  Plant response rating, Russian Thistle: 0
